Measurements: BindingDB's records for patent US10519177 (Plexxikon Inc., 2019)

target: T1, Bromodomain-containing protein 4 [1-477] (Human, UniProt O60885)
T1 construct: 1-477

IC50, < 1000 nM:
Cc1noc(C)c1-c1cnc2c(-c3ccc(C(=O)O)cc3)cn(CC3CC4(CCC4)C3)c2c1 [US10519177, Compound P-0603]
Cc1noc(C)c1-c1cnc2c(I)cn(Cc3ccccc3C#N)c2c1 [US10519177, Compound P-0921]
COC(=O)c1ccc(-c2c[nH]c3cc(-c4c(C)noc4C)cnc23)cc1 [US10519177, Compound P-1033]
